# Results taken from patent US6221914A, “Sulfonamide bridging compounds that inhibit tryptase activity” (Array Biopharma Inc., priority 1998, dated 2001).
# Experiments:
# Assay type in all cases: biochemical
# Human plasma factor Xa = biological target: T1, Human plasma factor Xa (Homo sapiens, UniProt P00742); experiment: Ki determination, human plasma factor Xa (N-Benzoyl-Ile-Glu-Gly-Arg-pNA); conditions: 50 mM Tris-HCl, pH 7.8, 200 mM NaCl, 0.05% BSA; read-out: Experimentally Determined Ki, Factor Xa
# T1 construct: from tissue; host or cells: human plasma
# T1 sequence (P00742 235-488 limits assumed): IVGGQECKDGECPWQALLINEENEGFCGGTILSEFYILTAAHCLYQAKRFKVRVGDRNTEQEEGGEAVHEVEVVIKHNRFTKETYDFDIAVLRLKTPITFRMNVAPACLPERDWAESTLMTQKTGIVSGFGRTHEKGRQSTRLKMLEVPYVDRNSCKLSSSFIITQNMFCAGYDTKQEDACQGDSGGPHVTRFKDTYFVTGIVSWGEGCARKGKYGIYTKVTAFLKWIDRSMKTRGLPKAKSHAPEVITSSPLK
# T1 sequence (P00742 41-179 partner limits assumed): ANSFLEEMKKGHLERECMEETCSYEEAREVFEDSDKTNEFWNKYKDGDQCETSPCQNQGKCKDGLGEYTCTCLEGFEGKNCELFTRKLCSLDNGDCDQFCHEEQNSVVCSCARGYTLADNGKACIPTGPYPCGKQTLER
# Description: (§1) Protease inhibition was assayed according to published procedures with minor modifications using various proteases and specific chromogenic peptide p-nitroanilide substrates. Assays were performed in Costar ultra-low cluster 96-well microtiter plate (Costar Corning Corp., Cambridge Mass.). Each protease was incubated with various concentrations of the test compound for 15 min. at 37° C. or as otherwise indicated, in specific assay buffer, and the residual activity was then measured by addition of the substrate. p-Nitroaniline produced by the proteolysis was determined by measuring the change in absorbance at 405 nm on a SpectraMAX 340 plate reader (Molecular devices, Sunnyvale, Calif.).
# (§2) 1. The inhibition constant, Ki is calculated from individual data points using the equation for a tight-binding inhibitor (See Beith, "Proteinase Inhibitors-Proceedings of 2nd Int. Res. Conference", Fritz, et al. eds, New York, p.4463-4469 (1974)):
# (§3) vi /vo [((Ki '+[I]+[E]o)^2 -4 [I]o
# (§4) [E]o)^1/2 (Ki '+[I]o -[E]o)]/2[E]o
# (§5) where Ki ' is apparent inhibition constant; vi and vo are the inhibited and uninhibited rates, respectively; [I]o and [E]o are the total concentrations of inhibitor and enzyme, respectively.
# (§6) [note: [E]o is determined by active site titration of enzyme]
# (§7) The Ki values are obtained by correcting Ki ' values for the effect of substrate concentration according to: [formula]
# (§8) 2. Other inhibition data (Ki >>[E]o), the Ki is calculated from using the equations for a competitive inhibitor: [formula]
# Human plasma factor Xa activity was determined by using N-Benzoyl-Ile-Glu-Gly-Arg-pNA in 50 mM Tris-HCl, pH 7.8, 200 mM NaCl, 0.05% BSA (See Lottenberg, et al. Meth. Enzymol. 80, 341-361 (1981)).
# (§9) The inhibition constant (Ki) of the test compounds against each proteolytic enzyme was determined according to Zitnik et al., Biochem. Biophys. Res. Commun. 232, 687-697 (1997)).
# Human plasma plasmin = biological target: T2, Human plasma plasmin (Homo sapiens, UniProt P00747); experiment: Ki determination, human plasma plasmin (Tosyl-Gly-Pro-Lys-pNA); conditions: 100 mM Tris-HCl, pH 7.4, 100 mM NaCl, 0.05% Triton X-100; read-out: Experimentally Determined Ki, Plasmin
# T2 construct: from tissue; host or cells: human plasma
# T2 sequence (P00747 581-810 limits assumed): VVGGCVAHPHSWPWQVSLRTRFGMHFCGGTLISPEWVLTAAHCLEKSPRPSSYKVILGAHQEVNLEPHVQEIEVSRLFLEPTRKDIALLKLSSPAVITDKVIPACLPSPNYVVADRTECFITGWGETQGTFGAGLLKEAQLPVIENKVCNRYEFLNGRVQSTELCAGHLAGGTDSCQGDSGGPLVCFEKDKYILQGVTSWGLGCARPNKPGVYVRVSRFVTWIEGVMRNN
# T2 sequence (P00747 97-580 partner limits assumed): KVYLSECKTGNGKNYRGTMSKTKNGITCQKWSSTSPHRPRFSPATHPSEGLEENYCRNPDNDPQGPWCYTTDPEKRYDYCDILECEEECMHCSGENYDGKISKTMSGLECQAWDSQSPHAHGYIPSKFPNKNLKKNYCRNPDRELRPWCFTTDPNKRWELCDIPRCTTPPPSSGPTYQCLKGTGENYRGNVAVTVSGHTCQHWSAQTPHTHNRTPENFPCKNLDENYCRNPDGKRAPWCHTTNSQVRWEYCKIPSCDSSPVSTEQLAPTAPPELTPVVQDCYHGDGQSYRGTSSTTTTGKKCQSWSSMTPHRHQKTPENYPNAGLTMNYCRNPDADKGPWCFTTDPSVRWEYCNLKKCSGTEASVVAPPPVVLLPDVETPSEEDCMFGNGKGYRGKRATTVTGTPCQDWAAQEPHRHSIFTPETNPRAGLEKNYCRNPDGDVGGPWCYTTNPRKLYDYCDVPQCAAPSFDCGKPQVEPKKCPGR
# Description: as §1, §2, §3, §4, §5, §6, §7, §8
# Human plasma plasmin activity was determined by using Tosyl-Gly-Pro-Lys-pNAin 100 mM Tris-HCl, pH 7.4, 100 mM NaCl, 0.05% Triton X-100 (See Lottenberg, et al., Meth. Enzymol. 80, 341-361 (1981)).
# as §9
# [1] = biological target: T3, Bovine Pancreatic Chymotrypsin (Bos taurus, UniProt P00766); experiment: Ki determination, bovine pancreatic chymotrypsin (N-Suc-Ala-Ala-Pro-Phe-pNA); conditions: 100 mM Tris-HCl, pH 7.8, 10 mM CaCl2; read-out: Experimentally Determined Ki, Chymotrypsin
# T3 construct: from tissue; host or cells: bovine pancreas
# Description: as §1, §2, §3, §4, §5, §6, §7, §8
# Bovine Pancreatic Chymotrypsin activity was determined by using N-Suc-Ala-Ala-Pro-Phe-pNA in 100 mM Tris-HCl, pH 7.8, 10 mM CaCl2 (See Delmar, et al., J. Biochem. 85, 157-162 (1979)).
# as §9
# Human plasma thrombin = biological target: T4, Human plasma thrombin (Homo sapiens, UniProt P00734); experiment: Ki determination, human plasma thrombin (H-D-Phe-Pip-Arg-pNA); conditions: 50 mM Tris-HCl, pH 8.3, 100 mM NaCl, 1% BSA; read-out: Experimentally Determined Ki, Thrombin
# T4 construct: from tissue; host or cells: human plasma
# Description: as §1, §2, §3, §4, §5, §6, §7, §8
# Human plasma thrombin activity was determined by using H-D-Phe-Pip-Arg-pNA in 50 mM Tris-HCl, pH 8.3, 100 mM NaCl, 1% BSA (See Lottenberg, et al. Meth. Enzymol. 80, 341-361 (1981)).
# as §9
# Human lung tryptase = experiment: Ki determination, human lung tryptase (Tosyl-Gly-Pro-Arg-pNA substrate); conditions: 50 mM Tris-HCl pH 8.0, 37° C., 1 nM tryptase, 320 μM GPR-pNA; read-out: Experimentally Determined Ki, Tryptase
# Description: as §1, §2, §3, §4, §5, §6, §7, §8
# Human lung tryptase purchased from Cortex Biochem (San Leandro, Calif.) was purified further on a Superdex 200 gel-filtration column. The active-site concentration of the enzyme was determined by spectrophotometric titration with 4-nitrophenyl 4'-guanidinobenzoate according to Schwartz, et al., J. Immunol., 114, 2304-2311 (1990). Tryptase activity was measured according to the procedures of Schwartz, et al., J. Biol. Chem., 261, 7372-7379 (1986) (See also, Schwartz, L. B., Methods In Enzymology, 244, 88 (1994)) with minor modifications, using Tosyl-Gly-Pro-Arg-p-nitroanilide ("GPR-pNA", Sigma Chemical Co., St. Louis, Mo., T-1637) as a chromogenic substrate. The reaction was performed in 50 mM Tris-HCl, pH 8.0, containing 150 mM NaCl and 0.02% Triton X-100 at 37° C. in Costar ultra-low cluster 96-well microtiter plates (Costar Corning Corp., Cambridge, Mass.). The amount of pNA produced by tryptase was determined by measuring the change in absorbance at 405 nm on a SpectraMAX 340 plate reader (Molecular devices, Sunnyvale, Calif.). The Km for the substrate was determined by Lineweaver-Burk analysis from initial velocities of substrate hydrolysis. The inhibition assay was carried out in a total volume of 200 μL. Tryptase (30 μL- final concentration 1 nM) was incubated with various concentrations of sample compound (50 μL) to be tested in the above assay buffer for 5 min. The reaction was started by the addition of substrate GPR-pNA (40 μL-final concentration 320 μM), and the residual activity was measured after 15 min. of incubation. The inhibition constant, Ki, was determined by fitting the inhibition data to a two-site competitive binding equation using data analysis program GraphPad PRISM (GraphPad Software, Inc., San Diego, Calif.).
# as §9
# r-tissue kallikrein = r-tissue kallikrein (Homo sapiens, UniProt P06870); experiment: Ki determination, r-tissue kallikrein (DL-Val-Leu-Arg-pNA); conditions: 50 mM Tris-HCl, pH 7.8, 200 mM NaCl, 0.05% BSA; read-out: Experimentally Determined Ki, Tissue Kallikrein
# r-tissue kallikrein, sequence (P06870 25-262): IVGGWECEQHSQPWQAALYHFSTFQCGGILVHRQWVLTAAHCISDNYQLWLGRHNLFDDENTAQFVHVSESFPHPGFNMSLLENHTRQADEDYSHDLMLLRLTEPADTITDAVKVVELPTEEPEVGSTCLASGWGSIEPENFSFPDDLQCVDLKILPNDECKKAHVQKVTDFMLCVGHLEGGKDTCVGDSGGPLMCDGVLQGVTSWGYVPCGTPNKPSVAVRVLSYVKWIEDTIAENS
# Description: as §1, §2, §3, §4, §5, §6, §7, §8
# I. Human Plasma and r-Tissue Kallikrein
# Human plasma and r-tissue kallikrein activity were determined in 50 mM Tris-HCl, pH 7.8, 200 mM NaCl, 0.05% BSA by using H-D-Prolyl-Phe-Arg-pNA and DL-Val-Leu-Arg-pNA, respectively (See Lottenberg, et al., Meth. Enzymol. 80, 341-361 (1981)).
# as §9
SMILES,Ki (Human plasma factor Xa) [µM],Ki (Human plasma plasmin) [µM],Ki [1] [µM],Ki (Human plasma thrombin) [µM],Ki (Human lung tryptase) [µM],Ki (r-tissue kallikrein) [µM]
"N=C(N)c1cccc(S(=O)(=O)NCc2ccc(OCCCCCOc3ccc(CNS(=O)(=O)c4cccc(C(=N)N)c4)cc3)cc2)c1 [Example 41, 1,5-Bis-{4-[(3-carbamimidoyl-benzenesulfonylamino)-methyl]-phenoxy}-pentane]",6.4,0.93,> 100,> 100,0.08,> 100
"N=C(N)c1cccc(S(=O)(=O)NCc2ccc(OCCCCCCOc3ccc(CNS(=O)(=O)c4cccc(C(=N)N)c4)cc3)cc2)c1 [Example 43, 1,6-Bis-{4-[(3-carbamimidoyl-benzenesulfonylamino)-methyl]-phenoxy}-hexane]",15.6,2.6,20,> 100,0.11,> 100
"N=C(N)c1cccc(S(=O)(=O)NCc2ccc(OCCCCCCCOc3ccc(CNS(=O)(=O)c4cccc(C(=N)N)c4)cc3)cc2)c1 [Example 45, 1,7-Bis-{4-[(3-carbamimidoyl-benzenesulfonylamino)-methyl]-phenoxy}-heptane]",7.6,10,> 100,> 100,0.8,> 100
"N=C(N)c1cccc(S(=O)(=O)NCc2ccc(OCCCCOc3ccc(CNS(=O)(=O)c4cccc(C(=N)N)c4)cc3)cc2)c1 [Example 47, 1,4-Bis-{4-[(3-carbamimidoyl-benzenesulfonylamino)-methyl]-phenoxy}-butane]",2.9,0.06,> 100,> 100,0.03,> 100
"N=C(N)c1cccc(S(=O)(=O)NCc2ccc(OCCCOc3ccc(CNS(=O)(=O)c4cccc(C(=N)N)c4)cc3)cc2)c1 [Example 49, 3,1-Bis-{4-[(3-carbamimidoyl-benzenesulfonylamino)-methyl]-phenoxy}-propane]",7.4,0.74,> 100,> 100,0.02,> 100
"N=C(N)c1ccc(S(=O)(=O)NCc2ccc(OCCCOc3ccc(CNS(=O)(=O)c4ccc(C(=N)N)cc4)cc3)cc2)cc1 [Example 50, 1,3-Bis-{4-[(4-carbamimidoyl-benzenesulfonylamino)-methyl]-phenoxy}-propane]",> 100,6.1,6.3,> 100,0.8,> 100
"N=C(N)c1cccc(S(=O)(=O)NCc2ccc(OCCOc3ccc(CNS(=O)(=O)c4cccc(C(=N)N)c4)cc3)cc2)c1 [Example 51, 1,2-Bis-{4-[(3-carbamimidoyl-benzenesulfonylamino)-methyl]-phenoxy}-ethane]",6.1,2,> 100,> 100,0.03,> 100
"N=C(N)c1cccc(S(=O)(=O)NCc2ccc(COCc3ccc(CNS(=O)(=O)c4cccc(C(=N)N)c4)cc3)cc2)c1 [Example 53, 1,3-Bis-{4-[(3-carbamimidoyl-benzenesulfonylamino)-methyl]-phenyl}-2-oxapropane]",16,10,> 100,> 100,0.1,> 100
"N=C(N)c1ccc(C(=O)NCc2ccc(OCCCCCOc3ccc(CNC(=O)c4ccc(C(=N)N)cc4)cc3)cc2)cc1 [Example 54, 1,5-Bis-{4-[(4-carbamimidoyl-benzenecarbonylamino)-methyl]-phenoxy}-pentane]",> 100,4.1,> 100,> 100,–,> 100
"N=C(N)c1cccc(C(=O)NCc2ccc(OCCCCCOc3ccc(CNC(=O)c4cccc(C(=N)N)c4)cc3)cc2)c1 [Example 55, 1,5-Bis-{4-[(3-carbamimidoyl-benzenecarbonylamino)-methyl]-phenoxy}-pentane]",1.8,7.6,> 100,> 100,0.01,> 100
"N=C(N)c1ccc(C(=O)NCc2ccc(OCCCCCCOc3ccc(CNC(=O)c4ccc(C(=N)N)cc4)cc3)cc2)cc1 [Example 56, 1,6-Bis-{4-[(4-carbamimidoyl-benzenecarbonylamino)-methyl]-phenoxy}-hexane]",–,1.6,> 100,> 100,–,> 100
"N=C(N)c1cccc(C(=O)NCc2ccc(OCCCCCCOc3ccc(CNC(=O)c4cccc(C(=N)N)c4)cc3)cc2)c1 [Example 57, 1,6-Bis-{4-[(3-carbamimidoyl-benzenecarbonylamino)-methyl]-phenoxy}-hexane]",–,10.7,> 100,> 100,0.01,> 100
"N=C(N)c1ccc(C(=O)NCc2ccc(OCCCCCCCOc3ccc(CNC(=O)c4ccc(C(=N)N)cc4)cc3)cc2)cc1 [Example 58, 1,7-Bis-{4-[(4-carbamimidoyl-benzenecarbonylamino)-methyl]-phenoxy}-heptane]",20,3.8,> 100,> 100,0.001,> 100
"N=C(N)c1cccc(C(=O)NCc2ccc(OCCCCCCCOc3ccc(CNC(=O)c4cccc(C(=N)N)c4)cc3)cc2)c1 [Example 59, 1,7-Bis-{4-[(3-carbamimidoyl-benzenecarbonylamino)-methyl]-phenoxy}-heptane]",8.3,8.7,> 100,> 100,0.08,> 100
"N=C(N)c1cccc(C(=O)NCc2ccc(OCCCOc3ccc(CNC(=O)c4cccc(C(=N)N)c4)cc3)cc2)c1 [Example 63, 1,3-Bis-{4-[(3-carbamimidoyl-benzoylamino)-methyl]-phenoxy}-propane]",–,28,> 100,> 100,0.02,> 100
